From patent US11478453B2, “Treatment for glioblastoma” (HADASIT MEDICAL RESEARCH SERVICES AND DEVELOPMENT LTD., priority 2016, dated 2022)

Assays:
A172 cells = experiment: Crystal violet cell viability, A172 glioma cells; type: cell-based
Description: (§1) A172 and U87MG cells were cultured in DMEM-Eagle medium supplemented with 4 mmol/L L-glutamine, 100 units/ml penicillin and 100 μg/ml streptomycin, and 10% FBS Charcoal Stripped (Biological Industries, Israel). The T98G cells were cultured in Eagle's minimum essential medium supplemented with 4 mmol/L L-glutamine, 100 units/ml penicillin and 100 μg/ml streptomycin. To avoid the influence of FBS derived steroid hormone on AR, the cell media were supplemented with 10% charcoal/dextran-treated (stripped) FBS (Biological Industries). The cells were maintained in a humidified incubator at 37° C. in 5% CO2.

T98G cells = experiment: Crystal violet cell viability, T98G glioma cells (single agents and combinations)
Description: as §1
The effect of combination therapies that involve anti-AR signaling agents together with agents that target EGFR on AR modulation was examined in glial tumor cells expressing a ligand independent AR splice variant.

U87MG cells = experiment: Crystal violet cell viability, U87MG glioma cells; type: cell-based, human
Description: as §1

[1] = Homo sapiens, 72 h, read-out: Cell viability, percentage of cells treated with vehicle
[2] = Homo sapiens, 72 h, read-out: Cell viability, percentage of cells treated with DHT

C[C@]12CCC(=O)C[C@@H]1CC[C@@H]1[C@@H]2CC[C@]2(C)[C@@H](O)CC[C@@H]12 [DHT, 5α-dihydrotestosterone]
Effect of DHT on cell viability versus vehicle (A172 cells; A172, 10 μM DHT, vehicle 0.15% ETOH): no effect on cell viability
Effect of DHT on cell viability versus vehicle (T98G cells; 10 μM DHT, vehicle 0.15% ETOH): no effect on cell viability
Effect of DHT on cell viability versus vehicle (U87MG cells; 10 μM DHT, vehicle 0.15% ETOH): no effect on cell viability

CN(C)C/C=C/C(=O)Nc1cc2c(Nc3ccc(F)c(Cl)c3)ncnc2cc1O[C@H]1CCOC1 [afatinib]
viability at 1.25 µM (T98G cells; [1]): 92%
viability at 5 µM (T98G cells; [1]): 47%

CC(O)(CS(=O)(=O)c1ccc(F)cc1)C(=O)Nc1ccc(C#N)c(C(F)(F)F)c1 (stereo not shown) [bicalutamide]
viability at 20 µM (A172 cells; Homo sapiens, A 172, A172, 20 uM, 72 hrs, with 10 μM DHT, read-out: Cell viability, percentage of cells treated with DHT): 90%
viability at 80 µM (A172 cells; Homo sapiens, A 172, A172, 80 uM, 72 hrs, with 10 μM DHT, read-out: Cell viability, percentage of cells treated with DHT): 43%
viability at 20 µM (T98G cells; [2]): 90%
viability at 80 µM (T98G cells; [2]): 59%
viability at 20 µM (U87MG cells; Homo sapiens, U-87 MG, 20 uM, 72 hrs, with 10 μM DHT, read-out: Cell viability, percentage of cells treated with DHT): 83%
viability at 80 µM (U87MG cells; Homo sapiens, U-87 MG, 80 uM, 72 hrs, with 10 μM DHT, read-out: Cell viability, percentage of cells treated with DHT): 31%

C#Cc1cccc(Nc2ncnc3cc(OCCOC)c(OCCOC)cc23)c1 [erlotinib]
viability at 1.25 µM (T98G cells; [1]): 94%
viability at 10 µM (T98G cells; [1]): 63%
